Reference: patent US20260183302A1, “PDK1 REGULATORY COMPOUND AND COMPOSITION CONTAINING THE SAME” (PROVIBIO CO., LTD., priority 2024, published 2026)

Columns and labels:
[1] = system: human lung fibroblasts MRC-5; test: TGF-β induced Collagen I expression in MRC-5 cells (Western blot); type: cell-based; conditions: MRC-5, TGF-β (5 ng/ml), 0.5 μM and 1 μM, 24 hours
Protocol: To confirm that the compound of the present invention directly acts on fibrosis-related mechanisms, in vitro experiments were performed using human lung fibroblasts MRC-5 cell lines (Korea Cell Bank).
First, MRC-5 cells were seeded at 5×10^3 cells per well in a 6-well plate and stabilized for 24 hours.
Subsequently, experimental groups were established, including a control group, a group treated with TGF-β (5 ng/ml) alone, and groups treated with TGF-β and the compound GO88 from the present invention at concentrations of 0.5 μM and 1 μM, respectively.
After treating each group with the drugs for 24 hours, the cell medium was removed, and the cells were washed twice with cold PBS. Then, RIPA lysis buffer containing phosphatase inhibitor and protease inhibitor was added to each group to extract proteins.
The extracted proteins were incubated at 4° C. for 30 minutes, then centrifuged at 13,000 rpm for 15 minutes, and the supernatant was collected. The total protein concentration was measured using the BCA protein quantification method.
Subsequently, the proteins were separated by SDS-PAGE, transferred to a PVDF membrane, and Western blot analysis was performed.
The expression levels of Collagen I, a marker related to pulmonary fibrosis, were confirmed, with GAPDH used as an internal control.

MRL/lpr mice = test: Systemic lupus erythematosus animal model (MRL/lpr); type: in vivo, MRL/MpJ-Faslpr/J mice
Description: The MRL/MpJ-Faslpr/J (hereinafter referred to as “MRL/lpr”) used in this experiment is one of the representative animal models for systemic lupus erythematosus (SLE), known to produce various autoantibodies, including antinuclear antibodies, due to the lpr (lymphoproliferation) gene.
In this invention, the period up to 9 weeks of age was considered the pre-disease stage, and the period after 23 weeks of age was considered the post-disease stage, and efficacy verification experiments using this model were conducted.
Subsequently, female and male MRL/lpr mice were mated at a ratio of 2:1 in the same facility, and the female offspring were administered the compound GO15F of the present invention or vehicle at a dose of 30 mg/kg once daily via intraperitoneal injection or oral administration from the age of 10 weeks until 23 weeks of age.
Urine samples were collected once a week from each individual and used for analytical experiments.
At 23 weeks of age, necropsy was performed on each MRL/lpr mouse, and serum, kidneys, and spleens were isolated and used for analytical experiments. […]
The concentration of anti-nuclear antibodies (Anti-dsDNA Ab) was measured using the ‘Mouse Anti-dsDNA IgG ELISA Kit (Alpha Diagnostic International, Cat. #5120)’ on serum isolated at the time of necropsy in the lupus animal model.
Each mouse serum was diluted to a final concentration of 1/5000 with Working Sample Diluent (WSD) and Low NSB Sample Diluent (LNSD), followed by adding 100 μl of the diluted serum to wells coated with anti-dsDNA and incubating at room temperature for 60 minutes.
The serum separated at the time of necropsy of the lupus animal model was analyzed using the ‘IgG (Total) Mouse Uncoated ELISA Kit (Invitrogen, Cat. #88-50400)’ to measure the concentration of total IgG.
To investigate the effect of GO15F administration on changes in the ratio of immune cells in the spleen of a lupus animal model, the spleens of mice administered each compound were excised, cells were extracted, and the cells were suspended in MACS buffer (autoMACS Washing Solution, Miltenyi Biotec., Cat. #130-092-987).
For flow cytometry analysis, FACS tubes (5 mL round tubes, Falcon, Cat. #352052) were used. To prevent non-specific binding of antibodies, 1 μg/mL of anti-mouse CD16/CD32 (In VivoPlus anti-mouse CD16/CD32, BioXCell, Cat. #BP0307) for 30 minutes to prevent non-specific binding of the antibody, then centrifuge at 1,500 rpm for 5 minutes and resuspend in 100 μL of MACS buffer.
For B cells, each FACS tube was stained with 1 μg/mL of FITC-conjugated anti-B220 antibody (eBioscience™, Cat. #11-0452-81) at 4° C. for 30 minutes, then washed with 2 mL of MACS buffer.
For T cells, each FACS tube was stained with 1 μg/mL PerCP-Cy5.5-conjugated anti-CD3 (Biolegend, Cat. #100218) at 4° C. for 30 minutes.
For macrophages, each FACS tube was stained with 1 μg/mL of PE-conjugated anti-CD11b antibody (Biolegend, Cat. #101207) and PerCP-Cy5.5-conjugated anti-F4/80 (Biolegend, Cat. #123128) and incubated at 4° C. for 30 minutes. The tubes were then washed with 2 mL of MACS buffer. […]
The synthesized cDNA from each mouse was quantified to a concentration of 50 ng using a micro-quantitative spectrophotometer, and qPCR was performed for the cytokines ‘IL-2, IL-6, IL-10, IL-17, TNF-α, IFN-γ’ using a SYBR green probe (CFX96, BIO-RAD).
To investigate the effects of drug administration on renal tissue in MRL/lpr mice, the tissue was fixed in 10% neutral buffered formalin at room temperature, followed by stepwise ethanol penetration for dehydration. The tissue was then embedded in xylene and paraffin.
The blocked tissues were sectioned into 4 μm thick slices using a microtome, followed by deparaffinization, hydration, and staining.
Hematoxylin & Eosin staining, PAS staining, and Masson trichrome staining were performed for pathological evaluation of the tissues. […]

[2] = system: Human Osteosarcoma, Saos-2; test: Relative cell viability, Saos-2 (CCK-8); type: cell-based
Protocol: Human-derived head and neck cancer cell line Fadu and osteosarcoma cell line Saos-2 were cultured in MEM medium containing 10% FBS, 100 U/mL penicillin, and 100 μg/mL streptomycin.
Following stabilization, the cells were harvested using Trypsin-EDTA treatment, centrifuged at 1,200 rpm for 3 minutes, the supernatant was removed, and the cells were resuspended in the same medium. They were then seeded into a 96-well plate (Costar 96-well cell culture plate, Corning) at 100 μL per well, and the conditions were adjusted as indicated in Table 5.
The cells were cultured in a 5% CO2 incubator at 37° C. for 24 hours, and after stabilization of the cells, each plate was washed with 200 μL of PBS per well and treated with 50 μL of culture medium per well. […]
After that, 10 μL of CCK-8 was added to each well, and the plate was incubated again at 37° C. in a 5% CO2 incubator for 2 hours.
In other words, when the survival rate of untreated cells (DMSO) is set at 100%, the relative cell survival rate in each group treated with the drug at different concentrations is indicated.

[3] = serum at necropsy, ELISA, vs control group

Nc1ncccc1C(=O)NCCCCCCCCCCCCN1CCNCC1 [Compound 14, 2-Amino-N-(12-(piperazin-1-yl)dodecyl)nicotinamide]
protein expression of Collagen I [1]: inhibited in a concentration-dependent manner

Nc1ncccc1C(=O)NCCCCCCCCCCCCF [Compound 57, 2-Amino-N-(12-fluoro-dodecyl)-nicotinamide]
protein concentration in urine (MRL/lpr mice; 30 mg/kg once daily, vs control group): significantly lower | renal pathological tissue staining (glomeruli) (MRL/lpr mice; H&E, PAS, Masson trichrome): glomerular capillary loops were well maintained | immune cells in the spleen (B cells, T cells, macrophages) (MRL/lpr mice; flow cytometry (B220, CD3, CD11b/F4/80)): reduced the increased B cells, T cells, and macrophages | IgG deposition in kidney tissue (MRL/lpr mice; immunofluorescence staining, vs control group): significantly lower | concentration of anti-dsDNA IgG in the blood (MRL/lpr mice; [3]): significantly lower | total IgG concentration in the blood (MRL/lpr mice; [3]): significantly lower

12-[4-(2,2-dimethylmorpholin-4-yl)]dodecyl-N-(6-aminopurine-2-yl) carboxamide [Compound 11]
Relative cell viability (%) ([2]; Saos-2, 10 μM, 48 hours): 24.98% | Relative cell viability (%) ([2]; Saos-2, 30 μM, 48 hours): 16.00% | Relative cell viability (%) ([2]; Saos-2, 50 μM, 48 hours): 36.73% | Relative cell viability (%) ([2]; Saos-2, 48 hours): 36.73%
